# Experimental data taken from patent US20110020312A1, “METHODS FOR TREATMENT OF METABOLIC DISORDERS USING EPIMETABOLIC SHIFTERS, MULTIDIMENSIONAL INTRACELLULAR MOLECULES, OR ENVIRONMENTAL INFLUENCERS” (priority 2009, published 2011).
# Assays:
# [1] = test system: Bcl-2; assay: Western blot of building block components, Bcl-2 expression in Skmel-28 melanoma cells; assay type: cell-based; design: key to Bcl-2 expression: X: a decrease in Bc1-2 expression for most of the concentrations and combinations tested as depicted in the table below; details: for Bcl-2 reduction or Caspase-3 increase: 500 nM, 1 μM, 25 μM and 50 μM
# Description: (§1) Skmel-28 melanoma cells were cultured in DMEM/F12 supplemented with 5% Fetal Bovine Serum (FBS) and 1× final concentration of Antibiotics. The cells were grown to 85% confluency and treated with building block components for 3, 6, 12 and 24 hours. The cells were then pelleted and a Western blot analysis was performed.
# (§2) The test building block components included L-Phenylylalanine, DL-Phenylyalanine, D-Phenylylalanine, L-Tyrosine, DL-Tyrosine, D-Tyrosine, 4-Hydroxy-phenylpyruvate, phenylacetate, 3-methoxy-4-hydroxymandelate (vanillylmandelate or VMA), vanillic acid, 4-hydroxy-benzoate, pyridoxine, panthenol, mevalonic acid, Acetylglycine, Acetyl-CoA, Farnesyl, and 2,3-Dimethoxy-5-methyl-p-benzoquinone.
# (§3) In the Western Blot Analysis, the cells were pelleted in cold PBS, lysed, and the protein levels were quantified using a BCA protein assay. The whole cell lysate was loaded in a 4% loading 12% running Tris-HCl gel. The proteins were then transferred to a nitrocellulose paper then blocked with a 5% milk Tris-buffered solution for 1 hour. The proteins were then exposed to primary antibodies (Bcl-2 and Caspase-3) overnight. The nitrocellulose paper was then exposed to Pico Chemilluminescent for 5 min and the protein expression was recorded. After exposure, actin was quantified using the same method. Using ImageJ the levels of protein expression were quantified. A t-Test was used to analyze for statistical significance.
# [2] = test system: Caspase-3; assay: Western blot of building block components, Caspase-3 expression in Skmel-28 melanoma cells; assay type: cell-based
# Description: as §1, §2, §3
# [3] = test system: neonatal fibroblast cells; assay: Cell proliferation assay (coulter counter); assay type: cell-based; details: HB 500 nM, 5 μM, 25 μM, alone or with benzoquinone 25, 50, 100 μM; 24 hours
# Description: A cell proliferation assay was also performed on neonatal fibroblast cells. […] The cells were trypsinized and quantified using a coulter counter.
# [4] = test system: Melanoma cells; assay: Cell proliferation assay (live cell count) of building block combinations; assay type: cell-based
# Description: Cell Proliferation Assay of the Combination of 4-Hydroxy-Benzoate with Benzoquinone: This set of experiments used a cell proliferation assay to assess the effect of combining different building block molecules on cell proliferation.
# The first study examined the effect of combining 4-Hydroxy-Benzoate with Benzoquinone. Cells were incubated for 48 hours, after which a cell count was performed for the live cells. Each test group was compared to the control, and each combination groups were compared to Benzoquinone control. The compounds were statistically analyzed for the addition of Benzoquinone.
# Additional studies were performed testing additional molar ratios. For the first test 4-Hydroxybenzoic were tested at concentrations of 500 nM, 1 μM, and 50 μM. These concentrations were tested in combination with 2,3-Dimethoxy-5-methyl-p-benzoquinone (Benzo). The concentration of Benzo tested were 25 μM, 50 μM, and 100 μM. Melanoma cells were grown to 80% confluency and seeded in 6 well plates at a concentration of 40K cells per well. The cells were treated with CoQ10, 4-Hydroxybenzoate, Benzo, and a combination of 4-Hydroxybenzoate/Benzo.
# A T-test was performed with p<0.05 as statistically significant.
# [5] = test system: cancer cells; details: cited from earlier work
# [6] = test system: Succinate Dehydrogenase (SDH) Subunit B; assay: Western blot, Succinate Dehydrogenase B in mitochondrial preparations; assay type: cell-based; details: NCIE0808 Mitopreps, 50 uM, 3 h
# Description: The above blots were stripped by incubating for 30 minutes with methanol, followed by two 10 minute washes with TBS-T, then 30 minutes of incubation with Stripping buffer at 50 deg C., and followed by two washes with 100 ml or more of TBS-T for 30′ each. The blots were scanned in laser scanner to check for complete stripping. The blots were activated with methanol for 5 seconds, washed with water for 5 minutes, and TBST for 15 minutes. The blots were blocked for 1 hour with 5% blocking reagent in TBS-T at room temperature and then washed 3 times with TBS-T (1×-15′; 2×5′ each) and probed with the primary antibody for PKM2, SDHB or SDHC in 5% BSA in TBS-T by incubation overnight at 4 deg C. with gentle shaking. The primary antibody for SDHC (ABNOVA H00006391-MO2; antimouse) was at 1:500 dilution. The primary antibody for SDHB was from Abcam ab4714-200; antimouse; at 1:1000 dilution. The primary antibody for Pyruvate Kinase M2 (PKM2) was from Novus Biologicals H00005315-D0IP; antirabbit; at 1:500 dilution. After incubation with primary antibodies, the membranes were washed 3 times with TBS-T (1×-15′; 2×5′ each) and probed with the secondary antibody (SDHB & C antimouse; and PKM2 antirabbit; 1:10,000 dilution) for 1 h on the orbital tilting shaker at room temperature. After 1 h of incubation, the blots were washed 3 times with TBS-T (1×-15′; 2×5′ each) and incubated with ECF reagent for 5 minutes and then each blot scanned with 5100 Fuji Laser scanner at 25 uM resolution, 16 bit, green laser, at 400V and at 500 V.
# [7] = test system: HDFa cells; assay: Extracellular acidification rate (ECAR), SeaHorse XF analyzer; assay type: cell-based, human; details: HDFa
# Text: Environmental influencers (e.g., MIMs or Epi-shifters) may also be identified by changes in cellular energetics. One example of the measurement of cellular energetics are the real-time measures of the consumption of molecular oxygen and/or the change in pH of the media of a cell culture. For example, the ability of a potential epi-shifter to modulate the metabolic state of a cell may be analyzed using, for example, the XF24 Analyzer (Seahorse, Inc.). This technology allows for real time detection of oxygen and pH changes in a monolayer of cells in order to evaluate the bioenergetics of a cell microenvironment. The XF24 Analyzer measures and compares the rates of oxygen consumption (OCR), which is a measure of aerobic metabolism, and extracellular acidification (ECAR), which is a measure of glycolysis, both key indicators of cellular energetics.
# (SeaHorse Biosciences Inc, North Billerica, Mass.).
# In this experiment, the OCR and extracellular acidification rate (ECAR) in normal cells lines were obtained in the presence and absence of CoQ10 to determine baseline values. It was observed that in its native nutrient environment, the basal OCR rates in normal cells lines are different, and are usually a function of the physiological roles of the cells in the body.
# Table 51 below describes the ECAR values (mpH/min) in HDFa cells in the presence or absence of CoQ10 under normoxic and hypoxic conditions at 5.5 mM and 22 mM glucose.
smiles,measurement,setting,value
N[C@@H](Cc1ccc(O)cc1)C(=O)O [L-Tyrosine],Bcl-2 expression,"[1]; 5 μM, 24 hours",statistically significant decrease
same,Bcl-2 expression,"[1]; 500 μM and 5 μM (so in the source), 24 hours",statistically significant decrease
same,Caspase-3 expression,"[2]; 500 nM, 12 hours",statistically significant increase
CC(=O)NCC(=O)O [Acetylglycine],Bcl-2 expression,"[1]; 5 μM and 25 μM, 12 hours",significant decrease
same,Bcl-2 expression,"[1]; 100 μM, 24 hour",significant decrease
O=C(O)c1ccc(O)cc1 [4-Hydroxybenzoate],fibroblast cell number (toxicity in normal cells),[3],did not show a significant reduction
same,cell number vs control,[4]; 48 hours incubation,significant decrease
same,cell proliferation,"[4]; treatment medium containing HB (500 nM, 1 μM, 50 μM)",significant decrease
same,Bcl-2 expression,"[1]; 15 μM, 24 hours",significant reduction
C[C@@](O)(CCO)CC(=O)O [Mevalonic Acid],Bcl-2 reduction or Caspase-3 increase,[1],no significant reduction in Bcl-2 expression or an increase in Caspase-3 expression
"C=C1/C(=C\C=C2/CCC[C@]3(C)[C@@H]([C@H](C)CCCC(C)(C)O)CC[C@@H]23)C[C@@H](O)C[C@@H]1O [Vitamin D3, 1α, 25-dihydroxyvitamin D3]",expression of anti-apoptotic proteins BCL2 and BCL-XL,[5]; reported (Deeb et al. 2007),repressing the expression
same,"expression of pro-apoptotic proteins (BAX, BAK and BAD)",[5]; reported (Deeb et al. 2007),inducing the expression
same,gene transcription of cyclin-dependent kinase inhibitor p21WAFI/CIPI,[5]; reported (Deeb et al. 2007),induce gene transcription
same,expression of vascular endothelial growth factor (VEGF),"[5]; reported (Masuda and Jones, 2006)",inhibit the expression
"COc1cc(C(O)C(=O)O)ccc1O (stereo not drawn) [VMA, 3-methoxy-4-hydroxymandelate]",apoptotic effect (Bcl-2/Caspase-3 Western blot),[1]; 100 nM to 100 μM,no statistically significant apoptotic effect
same,trend of Bcl-2 expression,[1]; 100 nM to 100 μM,downward trend
CC(=O)SCCNC(=O)CCNC(=O)[C@H](O)C(C)(C)COP(=O)(O)OP(=O)(O)OC[C@H]1O[C@@H](n2cnc3c(N)ncnc32)[C@H](O)[C@@H]1OP(=O)(O)O [Acetyl-CoA],Bcl-2 reduction or Caspase-3 increase,[1],no significant observed reduction in Bcl-2 or increase in Caspase-3 expression
N[C@H](Cc1ccccc1)C(=O)O [D-Phenylalanine],Bcl-2 expression,"[1]; 5 μM and 25 μM, 3 hours",significant reduction
same,Bcl-2 expression,"[1]; 5 μM, 25 μM and 100 μM, 6 hours",significant reduction
same,Caspase-3 expression,"[2]; 5 μM and 100 μM, 6 hours",significant increase
CC(C)(CO)[C@@H](O)C(=O)NCCCO [Panthenol],Bcl-2 expression,[1]; 25 μM,significant reduction
"COc1cc(C(=O)O)ccc1O [Vanillic Acid, Vanillic acid]",Bcl-2 expression,"[1]; 500 nM and 5 μM, 24 hour",significantly reduce
same,Bcl-2 expression,"[1]; 15 μM, 3 hours",reduction
same,Caspase-3 expression,"[2]; 15 μM, 24 hours",significant increase
N[C@@H](Cc1ccccc1)C(=O)O [L-Phenylalanine],Bcl-2 expression,"[1]; 5 μM, 3 hr",X
same,Bcl-2 expression,"[1]; 5 μM, 6 hours",statistically significant decrease
same,Bcl-2 expression,"[1]; 25 μM, 3 hr",X
same,Bcl-2 expression,"[1]; 25 μM, 6 hr",X
same,Bcl-2 expression,"[1]; 25 μM, 12 hours",statistically significant decrease
same,Bcl-2 expression,"[1]; 100 μM, 3 hours and 12 hours incubation",statistically significant decrease
same,Bcl-2 expression,"[1]; 100 μM, 3 hr",X
same,Bcl-2 expression,"[1]; 100 μM, 6 hr",X
same,Bcl-2 expression,"[1]; 100 μM, 24 hr",X
same,Caspase-3 expression,"[2]; 25 μM, 12 hours",statistically significant increase
COC1=C(OC)C(=O)C(C/C=C(\C)CC/C=C(\C)CC/C=C(\C)CC/C=C(\C)CC/C=C(\C)CC/C=C(\C)CC/C=C(\C)CC/C=C(\C)CC/C=C(\C)CCC=C(C)C)=C(C)C1=O [Coezyme Q10],Succinate Dehydrogenase B Average Normalized Volume,[6],634
O=C(O)C(=O)Cc1ccc(O)cc1 [4-Hydroxy-phenylpyruvate],Bcl-2 expression,"[1]; 5 μM and 15 μM, 24 hours",significant reduction
same,Caspase-3 expression,"[2]; 5 μM and 15 μM, 12 hours",significant increase
NC(Cc1ccccc1)C(=O)O (racemic) [DL-Phenylalanine],Bcl-2 expression,"[1]; 24 hours, concentration not stated (5, 25, 100 μM tested)",statistically significant decrease
same,Caspase-3 expression,"[2]; 3 hours, concentration not stated (5, 25, 100 μM tested)",statistically significant increase
N[C@H](Cc1ccc(O)cc1)C(=O)O [D-Tyrosine],Bcl-2 expression,"[1]; 5 μM and 15 μM, 12 and 24 hours",reduction
same,Caspase-3 expression,"[2]; 1 μM, 12 and 24 hour",increase
same,Caspase-3 expression,"[2]; 5 μM, 3, 12 and 24 time periods",significantly increased
NC(Cc1ccc(O)cc1)C(=O)O (racemic) [DL-Tyrosine],Bcl-2 expression,"[1]; 1 μM and 15 μM, 12 hours",statistical decrease
same,Bcl-2 expression,"[1]; 5 μM, 24 hour (DL-Tyrosine series)",statistical decrease
same,Caspase-3 expression,"[2]; 5 μM and 15 μM, 12 hours",increase
COC1=C(OC)C(=O)C(C/C=C(\C)CC/C=C(\C)CC/C=C(\C)CC/C=C(\C)CC/C=C(\C)CC/C=C(\C)CC/C=C(\C)CC/C=C(\C)CC/C=C(\C)CCC=C(C)C)=C(C)C1=O [compound 31510],ECAR,"[7]; Hypoxia (5.5 mM), 50 μM",5 mpH/min
same,ECAR,"[7]; Hypoxia (5.5 mM), 100 μM",5 mpH/min
same,ECAR,"[7]; Hypoxia (22 mM), 50 μM",6 mpH/min
same,ECAR,"[7]; Hypoxia (22 mM), 100 μM",8 mpH/min
same,ECAR,"[7]; Normoxia (5.5 mM), 50 μM",6 mpH/min
same,ECAR,"[7]; Normoxia (5.5 mM), 100 μM",6 mpH/min
same,ECAR,"[7]; Normoxia (22 mM), 50 μM",5 mpH/min
same,ECAR,"[7]; Normoxia (22 mM), 100 μM",5 mpH/min
Cc1ncc(CO)c(CO)c1O [Pyridoxine],Bcl-2 expression,"[1]; 24 hours (5, 25, 100 μM tested)",significant reduction
